The target of test [1] is T1, Proteasome Macropain subunit MB1 (Homo sapiens, UniProt P28074).
T1 sequence (P28074 whole entry): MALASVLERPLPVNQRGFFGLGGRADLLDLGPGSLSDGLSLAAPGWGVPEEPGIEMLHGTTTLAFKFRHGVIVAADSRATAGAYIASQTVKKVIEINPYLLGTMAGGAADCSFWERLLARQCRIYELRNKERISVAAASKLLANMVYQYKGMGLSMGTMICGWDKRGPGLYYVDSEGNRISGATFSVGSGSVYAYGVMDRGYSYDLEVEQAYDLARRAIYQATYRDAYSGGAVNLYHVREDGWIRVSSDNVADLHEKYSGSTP
The test can be described thus: Inhibition of human erythrocyte 20s proteasome chymotrypsin-like activity using Suc-LLVY-MCA as substrate pretreated for 10 mins followed by substrate addition measured after 3 hrs by spectrophotometric method.

Test [2] concerns HL-60. The test can be described thus: Cytotoxicity against human HL60 cells after 2 days by MTT assay. In kind it is functional, cell-based. To be noted: HL-60, 48 h. On the technique in general: Tetrazolium assays rely on reduction of a dye to a coloured formazan, in cell work by metabolically active cells.

The record followed here is ChEMBL document CHEMBL4118040, “Neomacrophorin X, a [4.4.3]Propellane-Type Meroterpenoid from Trichoderma sp. 1212-03” (J Nat Prod, 2017).

Structures are written as SMILES. pIC50: −log10 of the molar value.

As a reminder, the pIC50 is the IC50 on a negative log10 scale, so that one unit is a factor of ten. Regarding `C=C1CC[C@H]2C(C)(C)[C@H](O)CC[C@]2(C)[C@H]1CC1=C(O)C(=O)C2=C(C1=O)[C@@]13C=C[C@@H](O)[C@H](O)[C@]1(C2)C(=O)c1c(O)cc(C)cc1C3=O`, the pIC50 is 4.73 in test [1] and 5.03 in test [2].
